Data as given in patent US6929935B2, “Gluconobacter oxydans 2-ketoreductase enzyme and applications thereof” (Bristol-Myers Squibb Company, priority 2001, dated 2005).

Test system: G. oxydans 2-ketoreductase
Assay: Reduction of alkylketones with extract of E. coli expressing recombinant 2-ketoreductase, analysed by gas chromatography
Assay type: biochemical, Gluconobacter oxydans
Settings: NAD+/formate/formate dehydrogenase, 28° C., 16 hr; for % Conversion: 2 mg 2-ketone, 0.5 ml E. coli pBMS2000-KR extract, ketone to 2-alcohol
Description: Analysis of enantiomeric alcohols by gas chromatography: Samples were extracted in ethyl acetate and dried over anhydrous magnesium sulfate. Samples were then applied onto a Astec Chiraldex G-TA, gamma cyclodextrin column (20 m×0.25 mm×0.125 μm thickness; Astec, Whippany, N.J.) equipped with a guard column (Hewlett-Packard Ultra II, 5% phenyl methyl silicone, 5 m×0.32 mm×0.17 μm thickness; Agilent Technologies, Palo Alto, Calif.). The temperature of the injector was set at 150° C. and the detector of the chromatograph (Hewlett-Packard 5890) was set at 200° C. Detection was carried out with a flame ionization detector (Agilent Technologies). The separation was carried out by a gradient under the following conditions: 28° C. for 15 minutes, 5° C./min to 50° C. and hold 5 minutes. The helium flow rate was maintained at 22 cm/min. Under these conditions, the retention times for S-2-pentanol, R-2-pentanol, and 2-pentanone were 10.85, 11.67 and 17.84 minutes respectively.
The reaction contained 0.18 mg NAD+, 30 mg sodium formate, 0.3 units formate dehydrogenase (Sigma, St. Louis, Mo.), 2 mg 2-pentanone, and 0.5 ml of extract from an E. coli (BL21(DE3)) culture containing the pBMS2000-KR plasmid and expressing the ketoreductase. Alternatively, P. pastoris formate dehydrogenase (see S. Goldberg et al.: U.S. Provisional Patent Application Ser. No. 60/341,934 filed Dec. 19, 2001; U.S. Provisional Application Ser. No. 60/375,530 filed Apr. 25, 2002; and U.S. patent application Ser. No. 10/320,300; the contents of which are hereby incorporated by reference in their entirety) can be substituted for the commercial formate dehydrogenase. Cell extracts were obtained as follows: 2 g recombinant cells was suspended in 10 ml Buffer A (50 mM Tris-HCl, pH 7.5, 1 mM CaCl2, and 1 mM MgCl2). The resuspended cells were sonicated for 2 min (20 sec pulse “on” and 30 sec pulse “off”) using Model 550 Sonic Dismembrator (Misonix Inc., Farmingdale, N.Y.). The resulting mixture was centrifuged for 15 min at 8000 rpm at 4° C. The supernatant was removed and used for reduction reactions. The reactions were carried out in a culture tube at 28° C. with shaking at 200 rpm. After 16 hr, samples were quenched with 2 ml of ethyl acetate and analyzed by gas chromatography (described earlier).
The reactions contained 0.18 mg NAD+, 30 mg sodium formate, 0.3 units formate dehydrogenase (purchased from Sigma), 2 mg 2-ketones, and 0.5 ml of extract from the E. coli culture containing the pBMS2000-KR plasmid and expressing the ketoreductase (described above). The reactions were carried out in a culture tube at 28° C. on a shaker at 200 rpm. The end of 16 hr, samples were quenched with 2 ml of ethyl acetate and analyzed by gas chromatography (described earlier).

| Compound | reduction of the substrate to 2-pentanol using recombinant enzyme (2 mg substrate, 0.5 ml E. coli BL21(DE3) pBMS2000-KR extract) | % Conversion |
| --- | --- | --- |
| CCCC(C)=O [2-pentanone] | complete reduction | – |
| CCCCCCC(C)=O [2-Octanone] | – | >98% |
| CCCCCCCCC(C)=O [2-Decanone] | – | >98% |
| CCCCCC(C)=O [2-Heptanone] | – | >98% |
